Experimental findings from ChEMBL document CHEMBL1201862, “PubChem BioAssay data set” (2004) are described below.

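Following 48 hours of exposure in 96-well plates, responses at five concentrations were used to interpolate endpoints linearly. GI50 marks 50% less growth.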 The source made the active and inactive calls. Rule as the data show it: active = GI50 up to about 1.1 µM and inactive = higher. Some results are limits rather than exact numbers.

Test systems include NCI-H226; NCI-H522; 786-0; SF-539; RXF 393; UACC-257; SF-268; Malme-3M; HL-60; A549; EKVX; UO-31; RPMI-8226; LOX IMVI; SK-OV-3.
What all share (assay): NCI tumour cell line growth inhibition, 48 h

For the molecule `COC(=O)C(=O)C(C(=O)C(=O)Nc1cccc(C(C)=O)c1)c1nc2ccc([N+](=O)[O-])cc2nc1O` (configuration not stated), the GI50 in the experiment on NCI-H226, in the experiment with NCI-H522, in the experiment on 786-0, in the experiment on SF-539, with RXF 393 and in the experiment with UACC-257 was > 100 µM (inactive) throughout. Further, the GI50 in the experiment with SF-268 was > 100 µM (inactive); with Malme-3M, > 100 µM (inactive); in the experiment with HL-60 it was 80 µM (inactive); in the experiment with A549, > 100 µM (inactive); in the experiment with EKVX, > 100 µM (inactive); in the experiment on UO-31, > 100 µM (inactive). Also, the GI50 with RPMI-8226, in the experiment with LOX IMVI and in the experiment with SK-OV-3 was > 100 µM (inactive) each time.

On to `C[C@]12CCc3nonc3C1CC[C@@H]1C2CC[C@@]2(C)C1CC[C@@H]2O` (some centres not stated), for which the GI50 with NCI-H226, in the experiment on NCI-H522, in the experiment on 786-0, in the experiment with SF-539, in the experiment with RXF 393 and with UACC-257 was > 100 µM (inactive) in each case. The GI50 in the experiment with SF-268, with Malme-3M, in the experiment with HL-60, with A549, in the experiment on EKVX and in the experiment on UO-31 was > 100 µM (inactive) throughout. The GI50 with RPMI-8226, with LOX IMVI and in the experiment with SK-OV-3 was > 100 µM (inactive) throughout.

Take `CN(/N=C/c1ccnc2ccccc12)c1c([N+](=O)[O-])cc([N+](=O)[O-])cc1[N+](=O)[O-]`: the GI50 is 71.4 µM (inactive) in the experiment with NCI-H226; 27.6 µM (inactive) in the experiment on NCI-H522; > 100 µM (inactive) in the experiment on 786-0; > 100 µM (inactive) with SF-539; 39.2 µM (inactive) in the experiment on RXF 393; > 100 µM (inactive) in the experiment on UACC-257. For the same molecule, the GI50 with SF-268 is 61.2 µM (inactive); with Malme-3M, 31.5 µM (inactive); in the experiment with HL-60, 22.4 µM (inactive); with A549 it was 94.8 µM (inactive); in the experiment on EKVX, 47.3 µM (inactive); with UO-31, 26.7 µM (inactive). The GI50 in the experiment on RPMI-8226 is 26.6 µM (inactive); in the experiment with LOX IMVI, 48.2 µM (inactive); in the experiment with SK-OV-3, > 100 µM (inactive).

On to `NC(=O)c1ccccc1NC(=O)C(=O)Cc1nc2ccccc2nc1O`, for which the GI50 in the experiment on NCI-H522 was > 100 µM (inactive); in the experiment with 786-0, > 100 µM (inactive); in the experiment on SF-539, 48.5 µM (inactive); in the experiment on RXF 393, > 100 µM (inactive); in the experiment with UACC-257 it was > 100 µM (inactive); with SF-268, > 100 µM (inactive). The GI50 in the experiment with Malme-3M, with HL-60, in the experiment with A549, with EKVX, with UO-31 and in the experiment with RPMI-8226 was > 100 µM (inactive) throughout. Besides, the GI50 with LOX IMVI and in the experiment with SK-OV-3 was > 100 µM (inactive) in each case.

Consider `CCOC(=O)C1=C(NC(C)(C)C)OC/C1=N\NC(=O)Cc1ccccc1`, for which the GI50 in the experiment on NCI-H226, in the experiment with NCI-H522, in the experiment on 786-0, in the experiment with SF-539, in the experiment with RXF 393 and in the experiment on UACC-257 was > 100 µM (inactive) each time. For the same molecule, the GI50 in the experiment on SF-268, in the experiment on Malme-3M, in the experiment with HL-60, with A549, in the experiment on EKVX and with UO-31 was > 100 µM (inactive) throughout. In addition, the GI50 with LOX IMVI and in the experiment on SK-OV-3 was > 100 µM (inactive) each time.

Take `CC(C)c1cccc(C(C)C)c1NC1=CC(=O)C(=O)c2ccccc21`: the GI50 in the experiment on NCI-H226 is > 100 µM (inactive); in the experiment with NCI-H522, 58.6 µM (inactive); in the experiment with 786-0, > 100 µM (inactive); in the experiment with SF-539 it was > 100 µM (inactive); in the experiment on RXF 393 it was > 100 µM (inactive); in the experiment on UACC-257 it was 67 µM (inactive). Also, the GI50 with SF-268 is > 100 µM (inactive); in the experiment on Malme-3M, > 100 µM (inactive); in the experiment with HL-60, 77.8 µM (inactive); in the experiment on A549, > 100 µM (inactive); in the experiment with EKVX, > 100 µM (inactive); in the experiment on UO-31 it was > 100 µM (inactive). In addition, the results for the GI50 with RPMI-8226, in the experiment on LOX IMVI and in the experiment with SK-OV-3 were > 100 µM (inactive), 36.3 µM (inactive) and > 100 µM (inactive), respectively.

Consider `Cc1ccc(C(O)/C(=N/N)c2nc3ccc([N+](=O)[O-])cc3nc2O)cc1` (configuration not stated), for which the GI50 in the experiment on NCI-H226 was > 100 µM (inactive); in the experiment on NCI-H522 it was 17.8 µM (inactive); in the experiment on 786-0, > 100 µM (inactive); in the experiment on RXF 393 it was > 100 µM (inactive); in the experiment on UACC-257 it was > 100 µM (inactive); in the experiment with SF-268, 74.6 µM (inactive). The GI50 with Malme-3M was > 100 µM (inactive); in the experiment with HL-60, 27 µM (inactive); in the experiment with A549 it was > 100 µM (inactive); in the experiment on UO-31 it was 45.4 µM (inactive); in the experiment with RPMI-8226, 40.6 µM (inactive); with LOX IMVI it was > 100 µM (inactive). The GI50 with SK-OV-3 was > 100 µM (inactive).

As for `CCCCCN(CCCCC)C(=O)[C@H](CCC(=O)OCc1ccccc1)NC(=O)c1cc2ccccc2[nH]1`, the GI50 with NCI-H226, in the experiment with NCI-H522, with 786-0, in the experiment with SF-539, with RXF 393 and in the experiment on UACC-257 was > 100 µM (inactive) throughout. Moreover, the GI50 with SF-268, with Malme-3M, in the experiment on HL-60, in the experiment with A549, with EKVX and in the experiment on UO-31 was > 100 µM (inactive) in each case. Also, the GI50 in the experiment on RPMI-8226 is 0.343 µM (active); with LOX IMVI, > 100 µM (inactive); in the experiment with SK-OV-3, > 100 µM (inactive).

Turning to `COc1cccc(C2=NC(C(C)C)CO2)c1OC` (configuration not stated), the GI50 in the experiment with NCI-H226, with NCI-H522, in the experiment on 786-0, in the experiment with SF-539, in the experiment on RXF 393 and in the experiment with UACC-257 was > 100 µM (inactive) in each case. The GI50 with SF-268, in the experiment with Malme-3M, with HL-60, in the experiment on A549, in the experiment with EKVX and in the experiment with UO-31 was > 100 µM (inactive) in each case. For the same molecule, the GI50 in the experiment with RPMI-8226, in the experiment on LOX IMVI and with SK-OV-3 was > 100 µM (inactive) throughout.

For the molecule `COC(=O)C(C(=O)C(=O)Nc1cccc([N+](=O)[O-])c1)c1nc2ccc([N+](=O)[O-])cc2nc1O` (configuration not stated), the GI50 in the experiment on NCI-H226, in the experiment on NCI-H522, in the experiment on 786-0, with SF-539, with RXF 393 and with UACC-257 was > 100 µM (inactive) throughout. For the same molecule, the GI50 in the experiment with SF-268, in the experiment with Malme-3M, with HL-60, with A549, in the experiment on EKVX and with UO-31 was > 100 µM (inactive) each time. For the same molecule, the GI50 in the experiment with LOX IMVI and with SK-OV-3 was > 100 µM (inactive) in each case.

Take `C=CCCCCCCCC(O)C1C[C@H](O)C(CCCCC)O1` (some centres not stated): the GI50 was 13.4 µM (inactive) in the experiment with NCI-H226; 17.1 µM (inactive) with NCI-H522; 17.9 µM (inactive) in the experiment with 786-0; 15.8 µM (inactive) with SF-539; 17.1 µM (inactive) in the experiment with RXF 393; > 10 µM (inactive) in the experiment with UACC-257. For the same molecule, the GI50 with Malme-3M is 17.3 µM (inactive); in the experiment with HL-60, 17.5 µM (inactive); with A549 it was 19.4 µM (inactive); in the experiment with EKVX, 19.5 µM (inactive); in the experiment on UO-31, 17.8 µM (inactive); in the experiment with RPMI-8226, 17.1 µM (inactive). For the same molecule, the GI50 in the experiment with LOX IMVI is 19.6 µM (inactive); in the experiment with SK-OV-3, 20.4 µM (inactive).

For `COc1cc([C@@H]2OCC3C(c4ccc5c(c4)OCO5)OCC32)cc(OC)c1OC` (some centres not stated), the GI50 with NCI-H226 was 41.3 µM (inactive); in the experiment with NCI-H522, 49.9 µM (inactive); in the experiment with 786-0 it was > 100 µM (inactive); in the experiment with SF-539, > 100 µM (inactive); in the experiment on RXF 393 it was > 100 µM (inactive); with SF-268, > 100 µM (inactive). The GI50 is > 100 µM (inactive) in the experiment with Malme-3M; > 100 µM (inactive) with HL-60; 71.3 µM (inactive) in the experiment on A549; 47.1 µM (inactive) with EKVX; > 100 µM (inactive) with UO-31; 98.9 µM (inactive) in the experiment with RPMI-8226. For the same molecule, the GI50 with LOX IMVI and with SK-OV-3 was > 100 µM (inactive) each time.

Turning to `CN1C(=O)CSC1=S` [3-METHYL-RHODANINE], the GI50 in the experiment with NCI-H226, in the experiment on NCI-H522, with 786-0, with SF-539, with RXF 393 and with UACC-257 was > 100 µM (inactive) throughout. In addition, the GI50 in the experiment on SF-268, with Malme-3M, in the experiment with HL-60, in the experiment with A549, in the experiment on UO-31 and with RPMI-8226 was > 100 µM (inactive) throughout. In addition, the GI50 in the experiment with LOX IMVI and in the experiment on SK-OV-3 was > 100 µM (inactive) each time.
